Among the test systems are SNB-19 CNS; NCI-H23 lung; M14 melanoma; NCI-H460 lung; SK-MEL-28 melanoma; SK-MEL-5 melanoma; CCRF-CEM leukemia; OVCAR-3 ovarian; UACC-257 melanoma; SW-620 colon; TK-10 renal; MALME-3M melanoma.
Assay in all cases: NCI tumour cell line growth inhibition, 48 h

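48-hour exposure; five concentrations; linearly interpolated endpoints. Here, GI50 denotes the concentration required for 50% inhibition of growth. TGI denotes the concentration required for complete inhibition of growth.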

Turning to `CCOC(=O)C1=C(C)N(Cc2ccc(Cl)cc2Cl)C2(O)C(OC)CC(=O)C3C(=O)N(c4ccccc4)C(=O)C132` (stereo unspecified), the TGI with SNB-19 CNS was 11.8 µM; in the experiment with NCI-H23 lung it was 15.7 µM; in the experiment on M14 melanoma it was 13.5 µM; in the experiment on NCI-H460 lung, 12.5 µM; in the experiment with SK-MEL-28 melanoma, 4.37 µM; in the experiment with SK-MEL-5 melanoma, 16.2 µM. The TGI in the experiment on CCRF-CEM leukemia was determined as 4.11 µM; in the experiment with OVCAR-3 ovarian, 3.44 µM; in the experiment with UACC-257 melanoma, 18.2 µM; in the experiment on SW-620 colon, 7.15 µM; in the experiment with TK-10 renal it was 22.8 µM; with MALME-3M melanoma, 23.9 µM.

Consider `C[C@@H]1O[C@@H]2OCC[C@@H]2C2=C1C(=O)c1ccccc1C2=O`, for which the TGI was 36.5 µM with SNB-19 CNS; 23.4 µM with NCI-H23 lung; 14.2 µM with M14 melanoma; 31.9 µM with NCI-H460 lung; 51.5 µM in the experiment on SK-MEL-28 melanoma; 19.2 µM in the experiment with SK-MEL-5 melanoma. For the same compound, the TGI with CCRF-CEM leukemia was found to be 33.8 µM; with OVCAR-3 ovarian, 10.2 µM; in the experiment on UACC-257 melanoma, 24.5 µM; with SW-620 colon, 15.2 µM; with TK-10 renal, 34.1 µM; in the experiment on MALME-3M melanoma, 4.95 µM.

For the compound `Cc1ccc(NCCN(C)CC(C)O)c2c(=O)c3ccc(Cl)cc3sc12` (stereo unspecified), the GI50 is 4.62 µM in the experiment on SNB-19 CNS; 1.77 µM in the experiment with M14 melanoma; 1.75 µM in the experiment on SK-MEL-28 melanoma; 1.65 µM with SK-MEL-5 melanoma; 4.13 µM with OVCAR-3 ovarian; 1.96 µM with UACC-257 melanoma. In addition, the GI50 with TK-10 renal is 5.08 µM; in the experiment with MALME-3M melanoma, 1.78 µM. Further, the TGI with SNB-19 CNS is more than 100 µM; in the experiment with M14 melanoma, 3.38 µM; in the experiment with SK-MEL-28 melanoma it was 3.31 µM; with SK-MEL-5 melanoma, 3.01 µM; with OVCAR-3 ovarian, more than 100 µM; in the experiment with UACC-257 melanoma it was 3.57 µM. Also, the TGI in the experiment on TK-10 renal was more than 100 µM; with MALME-3M melanoma, 3.54 µM.

Take `N=c1nc(N)nc(N)n1-c1ccc(S(N)(=O)=O)cc1`: the TGI with SNB-19 CNS, with NCI-H23 lung, in the experiment on M14 melanoma, in the experiment on NCI-H460 lung, with SK-MEL-28 melanoma and with SK-MEL-5 melanoma was more than 100 µM each time. The TGI with CCRF-CEM leukemia, with OVCAR-3 ovarian, in the experiment with UACC-257 melanoma, with SW-620 colon, in the experiment on TK-10 renal and in the experiment on MALME-3M melanoma was more than 100 µM throughout.

With `CC(=O)NC1C(OCc2ccccc2)OC(CO)C(O)C1OCC(=O)NC(C)C(=O)NC(CCC(=O)OCCNC(=O)c1cccc2cc3ccccc3nc12)C(N)=O` (stereo unspecified), the TGI came to 78.8 µM in the experiment on SNB-19 CNS; 48.6 µM in the experiment on NCI-H23 lung; 42.1 µM in the experiment with M14 melanoma; 57.8 µM in the experiment with NCI-H460 lung; 43.3 µM in the experiment on SK-MEL-28 melanoma; 31.3 µM with SK-MEL-5 melanoma. Further, the TGI with OVCAR-3 ovarian is 43.3 µM; with UACC-257 melanoma it was 66.3 µM; with SW-620 colon, more than 100 µM; in the experiment on TK-10 renal it was 41.6 µM; in the experiment on MALME-3M melanoma it was 31.4 µM.

On to `CCOC(=O)C1=C(C)N2CCCOC2(C)C(C(=O)OC)C1c1cccc([N+](=O)[O-])c1` (stereo unspecified), for which the TGI in the experiment with SNB-19 CNS, in the experiment on NCI-H23 lung, in the experiment with M14 melanoma, in the experiment on NCI-H460 lung, in the experiment on SK-MEL-28 melanoma and with SK-MEL-5 melanoma was more than 100 µM in each case. The TGI with CCRF-CEM leukemia, in the experiment with OVCAR-3 ovarian, with UACC-257 melanoma, in the experiment with SW-620 colon and in the experiment with TK-10 renal was more than 100 µM each time.

Consider `Cc1c2ccccc2nc2[nH]c3ccncc3c12`, for which the TGI is more than 100 µM with SNB-19 CNS; 74.3 µM in the experiment on NCI-H23 lung; 85.7 µM in the experiment with M14 melanoma; 39.8 µM in the experiment with NCI-H460 lung; more than 100 µM in the experiment with SK-MEL-28 melanoma; 95 µM in the experiment with SK-MEL-5 melanoma. Moreover, the TGI was 10.9 µM in the experiment with CCRF-CEM leukemia; 91.9 µM with OVCAR-3 ovarian; more than 100 µM in the experiment with UACC-257 melanoma; more than 100 µM with SW-620 colon; 59.4 µM with TK-10 renal; 66.6 µM in the experiment with MALME-3M melanoma.

Take `NC(Cc1ccc2oc3cc(=O)c4ccccc4c-3nc2c1)C(=O)O` (stereo unspecified): the TGI in the experiment on SNB-19 CNS was more than 97.7 µM; with NCI-H23 lung it was 16.3 µM; in the experiment on M14 melanoma it was 30.1 µM; in the experiment on NCI-H460 lung, 32 µM; with SK-MEL-28 melanoma, 59 µM; in the experiment on SK-MEL-5 melanoma, 11.5 µM. Further, the TGI in the experiment on CCRF-CEM leukemia was 71.1 µM; in the experiment on OVCAR-3 ovarian, 81.5 µM; with UACC-257 melanoma, 39.3 µM; with SW-620 colon, 80.9 µM; in the experiment on TK-10 renal, more than 97.2 µM; with MALME-3M melanoma, 17.6 µM.

Regarding `CN(C)CCNc1ccc2nnn3c4ccc(Cl)cc4c(=O)c1c23`, the TGI was 26.7 µM in the experiment with SNB-19 CNS; 18.7 µM with NCI-H23 lung; 16.7 µM in the experiment with M14 melanoma; 14.8 µM in the experiment on NCI-H460 lung; 18 µM in the experiment on SK-MEL-28 melanoma; 10.6 µM with SK-MEL-5 melanoma. Besides, the TGI was more than 52.8 µM in the experiment on CCRF-CEM leukemia; 23 µM in the experiment on OVCAR-3 ovarian; 17.5 µM in the experiment on UACC-257 melanoma; 18 µM in the experiment with SW-620 colon; 22.1 µM in the experiment on TK-10 renal; 17 µM in the experiment on MALME-3M melanoma.

As to `COc1cc2c(cc1O)CCN[C@@]21CS[C@H]2c3c(OC(C)=O)c(C)c4c(c3C(COC1=O)N1C2C2c3c(cc(C)c(OC)c3O)CC([C@@H]1O)N2C)OCO4` (stereo partly specified), the values for the TGI in the experiment on M14 melanoma, in the experiment on SK-MEL-28 melanoma and in the experiment with CCRF-CEM leukemia were 0.00473 µM, 0.00682 µM and less than 1e-06 µM, respectively. Moreover, the GI50 with SK-MEL-28 melanoma was 0.00242 µM.

Take `O=S(=O)(O)c1cc(O)c2c(O)c(N=Nc3ccc(/C=C/c4ccc(N=Nc5c(S(=O)(=O)O)cc6cc(S(=O)(=O)O)cc(O)c6c5O)cc4S(=O)(=O)O)c(S(=O)(=O)O)c3)c(S(=O)(=O)O)cc2c1`: the TGI with SNB-19 CNS, in the experiment with NCI-H23 lung, in the experiment on M14 melanoma, in the experiment with NCI-H460 lung, in the experiment with SK-MEL-28 melanoma and in the experiment on SK-MEL-5 melanoma was more than 100 µM throughout. Further, the TGI with CCRF-CEM leukemia, in the experiment with OVCAR-3 ovarian, in the experiment with UACC-257 melanoma, in the experiment on SW-620 colon, with TK-10 renal and in the experiment with MALME-3M melanoma was more than 100 µM each time.

As to `N=C(N)SC1c2ccccc2-c2cc([N+](=O)[O-])ccc21` (stereo unspecified), the TGI is 14.3 µM in the experiment on SNB-19 CNS; 18.3 µM with NCI-H23 lung; 17.7 µM in the experiment on M14 melanoma; 17.2 µM in the experiment on NCI-H460 lung; 17.5 µM in the experiment on SK-MEL-28 melanoma; 10.6 µM in the experiment with SK-MEL-5 melanoma. Moreover, the TGI is 20.3 µM in the experiment with CCRF-CEM leukemia; 7.47 µM with OVCAR-3 ovarian; 20.9 µM in the experiment on UACC-257 melanoma; 22.1 µM in the experiment on SW-620 colon; 21.3 µM in the experiment on TK-10 renal; 16.9 µM in the experiment with MALME-3M melanoma.

Regarding `CN[C@@H]1[C@H](O)[C@H](NC)[C@H]2O[C@@]3(O)C(=O)C[C@@H](C)O[C@H]3O[C@@H]2[C@H]1O`, the TGI in the experiment on SNB-19 CNS, with NCI-H23 lung, with M14 melanoma, in the experiment with NCI-H460 lung, with SK-MEL-28 melanoma and in the experiment on SK-MEL-5 melanoma was more than 100 µM in each case. The TGI in the experiment on CCRF-CEM leukemia, in the experiment on OVCAR-3 ovarian, with UACC-257 melanoma, in the experiment on SW-620 colon and with MALME-3M melanoma was more than 100 µM each time.

Take `C=C(/C=C/C=C(/CCC=C(C)C)COC(C)=O)[C@@H]1CC[C@]2([C@H](CCCO)/C(=C(/C)C=O)CC[C@]2(C)O)[C@@H]1O`: the TGI is 29.7 µM in the experiment with SNB-19 CNS; 35.5 µM in the experiment with NCI-H23 lung; 23.5 µM in the experiment on M14 melanoma; 24.3 µM with NCI-H460 lung; 26.9 µM with SK-MEL-28 melanoma; 4.97 µM in the experiment on CCRF-CEM leukemia. The TGI came out at 32.6 µM in the experiment with UACC-257 melanoma, 22 µM with SW-620 colon, 31.3 µM in the experiment with TK-10 renal and 15.7 µM in the experiment on MALME-3M melanoma.

Consider `NC(=O)c1nnc2cc(F)c(F)cc2c1N`, for which the TGI in the experiment with SNB-19 CNS, in the experiment on NCI-H23 lung, in the experiment on M14 melanoma, in the experiment with NCI-H460 lung, in the experiment on SK-MEL-5 melanoma and with CCRF-CEM leukemia was more than 100 µM throughout. For the same compound, the TGI in the experiment on OVCAR-3 ovarian, with UACC-257 melanoma, with SW-620 colon, in the experiment on TK-10 renal and in the experiment on MALME-3M melanoma was more than 100 µM each time.

Regarding `COc1cc2c(cc1OC)C(C1(O)CCCCC1)NCC2` (stereo unspecified), the TGI with NCI-H23 lung, with M14 melanoma, in the experiment on NCI-H460 lung, in the experiment on SK-MEL-28 melanoma, with SK-MEL-5 melanoma and with CCRF-CEM leukemia was more than 100 µM throughout. Besides, the TGI in the experiment on OVCAR-3 ovarian, in the experiment on UACC-257 melanoma, with SW-620 colon, in the experiment on TK-10 renal and in the experiment with MALME-3M melanoma was more than 100 µM each time.

Consider `CC1(C)[C@@H]2C[C@H]1C(Cc1ccccc1C[C@H]1c3cc(-c4ccccn4)ncc3[C@H]3C[C@@H]1C3(C)C)c1cc(-c3ccccn3)ncc12` (stereo partly specified), for which the TGI was more than 100 µM in the experiment on SNB-19 CNS; more than 100 µM with NCI-H23 lung; more than 31.9 µM in the experiment on NCI-H460 lung; more than 100 µM in the experiment on SK-MEL-28 melanoma; 28.1 µM in the experiment on SK-MEL-5 melanoma; 0.899 µM in the experiment on CCRF-CEM leukemia. The TGI with OVCAR-3 ovarian was 1.45 µM; with SW-620 colon, more than 100 µM; with TK-10 renal, more than 78.7 µM; with MALME-3M melanoma, more than 100 µM.

For the origin of these results see PubChem BioAssay (NCI).
